Patent publication US20260285850A1, “SUBSTITUTED OXAZOLIDINONES AND IMIDAZOLINONES AS HERBICIDES” (FMC CORPORATION, priority 2023, published 2026)

What was measured:
Type in all cases: in vivo
[1] = system: barnyardgrass (Echinochloa crus-galli); experiment: Test A preemergence soil spray, visual injury rating 0-100; conditions: 10 days
Method in brief: (§1)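 Rating: visual, day 10, untreated plants as reference, 0 no effect to 100 full control. Plants were in loam-sand and were treated either preemergence via directed soil spray or postemergence at the one- to two-leaf stage.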

[2] = system: blackgrass (Alopecurus myosuroides); experiment: as above; conditions: 10 days
Method in brief: as §1

corn (Zea mays) [3] = experiment: as above; conditions: 10 days
Method in brief: as §1

[4] = system: green foxtail (Setaria viridis); experiment: as above; conditions: 10 days
Method in brief: as §1

kochia (Bassia scoparia) [5] = experiment: as above; conditions: 10 days
Method in brief: as §1

[6] = system: oat, wild (wild oat, Avena fatua); experiment: as above; conditions: 10 days
Method in brief: as §1

[7] = system: palmer (palmer amaranth, palmer pigweed, Amaranthus palmeri); experiment: as above; conditions: 10 days
Method in brief: as §1

[8] = system: ragweed (common ragweed, Ambrosia artemisiifolia); experiment: as above; conditions: 10 days
Method in brief: as §1

[9] = system: ryegrass, Italian (italian ryegrass, Lolium multiflorum); experiment: as above; conditions: 10 days
Method in brief: as §1

soybean (Glycine max) [10] = experiment: as above; conditions: 10 days
Method in brief: as §1

[11] = system: wheat (Triticum aestivum); experiment: as above; conditions: 10 days
Method in brief: as §1

[12] = system: barnyardgrass (Echinochloa crus-galli); experiment: Test A postemergence application, visual injury rating 0-100
Method in brief: as §1

[13] = system: blackgrass (Alopecurus myosuroides); experiment: as above
Method in brief: as §1

corn (Zea mays) [14] = experiment: as above
Method in brief: as §1

[15] = system: galium (catchweed bedstraw, Galium aparine); experiment: as above
Method in brief: as §1

[16] = system: green foxtail (Setaria viridis); experiment: as above
Method in brief: as §1

[17] = system: horseweed (Erigeron canadensis); experiment: as above
Method in brief: as §1

kochia (Bassia scoparia) [18] = experiment: as above
Method in brief: as §1

[19] = system: oat, wild (wild oat, Avena fatua); experiment: as above
Method in brief: as §1

[20] = system: palmer (palmer amaranth, palmer pigweed, Amaranthus palmeri); experiment: as above
Method in brief: as §1

[21] = system: ragweed (common ragweed, Ambrosia artemisiifolia); experiment: as above
Method in brief: as §1

[22] = system: ryegrass, Italian (italian ryegrass, Lolium multiflorum); experiment: as above
Method in brief: as §1

soybean (Glycine max) [23] = experiment: as above
Method in brief: as §1

[24] = system: wheat (Triticum aestivum); experiment: as above
Method in brief: as §1

[25] = system: barnyardgrass (Echinochloa crusgalli); experiment: Test B flooded paddy test, visual plant response rating 0-100; conditions: 250 g ai/ha, Flood, applied to paddy water, evaluated after 13 days
Method in brief: (§2)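 Plants were grown to the 2-leaf stage, then pots were flooded to 3 cm above the soil and compound was applied directly to the paddy water, with that depth kept throughout.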

[26] = system: ducksalad (Heteranthera limosa); experiment: as above; conditions: 250 g ai/ha, Flood, applied to paddy water, evaluated after 13 days
Method in brief: as §2

rice (Oryza sativa) = experiment: as above; conditions: 250 g ai/ha, Flood, applied to paddy water, evaluated after 13 days
Method in brief: as §2

[27] = system: sedge, umbrella (small-flower umbrella sedge, Cyperus difformis); experiment: as above; conditions: 250 g ai/ha, Flood, applied to paddy water, evaluated after 13 days
Method in brief: as §2

[28] = 62 g ai/ha, 0 = no effect, 100 = complete control
[29] = 125 g ai/ha, 0 = no effect, 100 = complete control
[30] = 62 g ai/ha, postemergence, 10 days, 0 = no effect, 100 = complete control
[31] = Postemergence, 16 g ai/ha, greenhouse 10 days, 0 no effect, 100 complete control

CC(C)COC(=O)C1=CCC(NC(=O)C2(C)CN(c3cc(F)cc(F)c3)C(=O)O2)C1 (centres unmarked) [Compound 98]
Barnyardgrass plant response rating ([1]; 16 g ai/ha, 0 to 100 scale): 10 | Barnyardgrass plant response rating (0-100) [1, 28]: 90 | Barnyardgrass plant response rating (0 to 100 scale) [1, 29]: 70 | Blackgrass plant response rating ([2]; 16 g ai/ha, 0 to 100 scale): 10 | Blackgrass plant response rating (0-100) [2, 28]: 50 | Blackgrass plant response rating (0 to 100 scale) [2, 29]: 0 | Corn plant response rating (corn (Zea mays) [3]; 16 g ai/ha, 0 to 100 scale): 0 | Corn plant response rating (0-100) (corn (Zea mays) [3]; [28]): 90 | Corn plant response rating (0 to 100 scale) (corn (Zea mays) [3]; [29]): 20 | Foxtail, Green plant response rating ([4]; 16 g ai/ha, 0 to 100 scale): 70 | Foxtail, Green plant response rating (0-100) [4, 28]: 100 | Kochia plant response rating (kochia (Bassia scoparia) [5]; 16 g ai/ha, 0 to 100 scale): 80 | Kochia plant response rating (0-100) (kochia (Bassia scoparia) [5]; [28]): 90 | Kochia plant response rating (0 to 100 scale) (kochia (Bassia scoparia) [5]; [29]): 90 | Oat, Wild plant response rating ([6]; 16 g ai/ha, 0 to 100 scale): 0 | Oat, Wild plant response rating (0-100) [6, 28]: 40 | Oat, Wild plant response rating (0 to 100 scale) [6, 29]: 20 | Pigweed, Palmer plant response rating ([7]; 16 g ai/ha, 0 to 100 scale): 10 | Pigweed, Palmer plant response rating (0-100) [7, 28]: 50 | Amaranth, Palmer plant response rating (0 to 100 scale) [7, 29]: 100 | Ragweed plant response rating ([8]; 16 g ai/ha, 0 to 100 scale): 0 | Ragweed plant response rating (0-100) [8, 28]: 0 | Ragweed plant response rating (0 to 100 scale) [8, 29]: 50 | Ryegrass, Italian plant response rating ([9]; 16 g ai/ha, 0 to 100 scale): 0 | Ryegrass, Italian plant response rating (0-100) [9, 28]: 80 | Ryegrass, Italian plant response rating (0 to 100 scale) [9, 29]: 80 | Soybean plant response rating (soybean (Glycine max) [10]; 16 g ai/ha, 0 to 100 scale): 0 | Soybean plant response rating (0-100) (soybean (Glycine max) [10]; [28]): 50 | Soybean plant response rating (0 to 100 scale) (soybean (Glycine max) [10]; [29]): 10 | Wheat plant response rating ([11]; 16 g ai/ha, 0 to 100 scale): 30 | Wheat plant response rating (0-100) [11, 28]: 90 | Wheat plant response rating (0 to 100 scale) [11, 29]: 70 | Barnyardgrass plant response rating (0-100) [12, 30]: 100 | Barnyardgrass plant response rating (0 to 100 scale) [12, 31]: 100 | Blackgrass plant response rating (0-100) [13, 30]: 90 | Blackgrass plant response rating (0 to 100 scale) [13, 31]: 80 | Corn plant response rating (0-100) (corn (Zea mays) [14]; [30]): 100 | Corn plant response rating (0 to 100 scale) (corn (Zea mays) [14]; [31]): 90 | Galium plant response rating (0-100) [15, 30]: 90 | Galium plant response rating (0 to 100 scale) [15, 31]: 80 | Foxtail, Green plant response rating (0-100) [16, 30]: 90 | Foxtail, Green plant response rating (0 to 100 scale) [16, 31]: 80 | Horseweed plant response rating (0-100) [17, 30]: 60 | Horseweed plant response rating (0 to 100 scale) [17, 31]: 20 | Kochia plant response rating (0-100) (kochia (Bassia scoparia) [18]; [30]): 90 | Kochia plant response rating (0 to 100 scale) (kochia (Bassia scoparia) [18]; [31]): 80 | Oat, Wild plant response rating (0-100) [19, 30]: 100 | Oat, Wild plant response rating (0 to 100 scale) [19, 31]: 60 | Pigweed, Palmer plant response rating (0-100) [20, 30]: 90 | Pigweed, Palmer plant response rating (0 to 100 scale) [20, 31]: 70 | Ragweed plant response rating (0-100) [21, 30]: 60 | Ragweed plant response rating (0 to 100 scale) [21, 31]: 50 | Ryegrass, Italian plant response rating (0-100) [22, 30]: 90 | Ryegrass, Italian plant response rating (0 to 100 scale) [22, 31]: 80 | Soybean plant response rating (0-100) (soybean (Glycine max) [23]; [30]): 60 | Soybean plant response rating (0 to 100 scale) (soybean (Glycine max) [23]; [31]): 50 | Wheat plant response rating (0-100) [24, 30]: 80 | Wheat plant response rating (0 to 100 scale) [24, 31]: 70 | Plant response rating, Barnyardgrass (0 to 100 scale, 0 is no effect and 100 is complete control) [25]: 65 | Plant response rating, Ducksalad (0 to 100 scale, 0 is no effect and 100 is complete control) [26]: 75 | Plant response rating, Rice (0 to 100 scale, 0 is no effect and 100 is complete control) (rice (Oryza sativa)): 70 | Plant response rating, Sedge, Umbrella (0 to 100 scale, 0 is no effect and 100 is complete control) [27]: 98
